In ChEMBL document CHEMBL1799910, “Optimization of 1,2,3,4-tetrahydroacridin-9(10H)-ones as antimalarials utilizing structure-activity and structure-property relationships” (J Med Chem, 2011):
pEC50: −log10 of the molar value. In brackets after ≈: the same amount, converted by molar mass.

Experiments:
[1] = Aqueous solubility of compound at pH 7.4 by HPLC analysis; details: buffer
[2] = test system: Plasmodium falciparum; assay: Antimalarial activity against chloroquine and pyrimethamine-resistant Plasmodium falciparum W2 infected in human A positive erythrocytes after 72 hrs by SYBR Green I assay; type: functional, organism-based; details: W2, 72 h
[3] = Cytotoxicity index, ratio of EC50 for mouse J774 cells to EC50 for chloroquine, mefloquine, pyrimethamine and atovaquone-resistant Plasmodium falciparum TM90-C2B; type: cell-based; details: read-out: Ratio EC50
[4] = test system: Plasmodium falciparum; assay: Antimalarial activity against chloroquine, mefloquine, pyrimethamine and atovaquone-resistant Plasmodium falciparum TM90-C2B infected in human A positive erythrocytes after 72 hrs by SYBR Green I assay; type: functional, organism-based
[5] = Permeability of the compound by PAMPA method at pH 7.4; type: ADME; details: read-out: permeability
[6] = Partition coefficient, log D of the compound at pH 7.4 by HPLC analysis; details: octanol/water
[7] = test system: J774; assay: Cytotoxicity against mouse J774 cells after 72 hrs by Cell titer 96 aqueous one solution cell proliferation assay; type: cell-based; details: J774, 72 h
[8] = test system: Plasmodium falciparum; assay: Resistance index, ratio of EC50 for chloroquine, mefloquine, pyrimethamine and atovaquone-resistant Plasmodium falciparum TM90-C2B to EC50 for chloroquine and pyrimethamine-resistant Plasmodium falciparum W2; type: functional

## O=c1c2c([nH]c3ccc(Cl)cc13)CCCC2
[1]
  solubility: 4 µM (≈ 0.935 µg/mL)
[2]
  pEC50: 7.00
[3]
  selectivity ratio: ≥ 100
[4]
  pEC50: 7.20
[5]
  Papp: 57 ×10⁻⁶ cm/s
[6]
  logD: 2
[7]
  pEC50: < 5.70
[8]
  Ratio EC50: 0.63

## O=c1c2c([nH]c3cccc(Cl)c13)CCCC2
[1]
  solubility: 99 µM (≈ 23.1 µg/mL)
[2]
  pEC50: 6.43
[3]
  selectivity ratio: ≥ 100
[4]
  pEC50: 6.35
[5]
  Papp: 47 ×10⁻⁶ cm/s
[6]
  logD: 1.8
[7]
  pEC50: < 5.30
[8]
  Ratio EC50: 1.22

## CC1(C)CCc2[nH]c3ccccc3c(=O)c2C1
[1]
  solubility: 35 µM (≈ 7.96 µg/mL)
[2]
  pEC50: 6.38
[3]
  selectivity ratio: ≥ 100
[4]
  pEC50: 6.53
[5]
  Papp: 43 ×10⁻⁶ cm/s
[6]
  logD: 1.8
[7]
  pEC50: < 4.70
[8]
  Ratio EC50: 0.7

## COc1cccc2c(=O)c3c([nH]c12)CCC(C)(C)C3
[1]
  solubility: 91 µM (≈ 23.4 µg/mL)
[2]
  pEC50: 5.70
[3]
  selectivity ratio: ≥ 100
[4]
  pEC50: 6.21
[5]
  Papp: 95 ×10⁻⁶ cm/s
[6]
  logD: 2.4
[7]
  pEC50: < 4.40
[8]
  Ratio EC50: 0.31

## COc1ccc2[nH]c3c(c(=O)c2c1)CC(C)(C)CC3
[1]
  solubility: 38 µM (≈ 9.78 µg/mL)
[2]
  pEC50: 5.08
[3]
  selectivity ratio: ≥ 100
[4]
  pEC50: < 5.01
[5]
  Papp: 73 ×10⁻⁶ cm/s
[6]
  logD: 2
[7]
  pEC50: < 4.70
[8]
  Ratio EC50: >1.16

## COc1cccc2[nH]c3c(c(=O)c12)CC(C)(C)CC3
[1]
  solubility: 83 µM (≈ 21.4 µg/mL)
[2]
  pEC50: 5.28
[3]
  selectivity ratio: ≥ 100
[4]
  pEC50: 5.46
[5]
  Papp: 54 ×10⁻⁶ cm/s
[6]
  logD: 1.9
[7]
  pEC50: < 4.70
[8]
  Ratio EC50: 0.67

## Cc1cccc2c(=O)c3c([nH]c12)CCC(C)(C)C3
[1]
  solubility: 38 µM (≈ 9.17 µg/mL)
[2]
  pEC50: 6.10
[3]
  selectivity ratio: ≥ 100
[4]
  pEC50: 6.27
[5]
  Papp: 90 ×10⁻⁶ cm/s
[6]
  logD: 2.3
[7]
  pEC50: < 4.40
[8]
  Ratio EC50: 0.67

## Cc1ccc2c(=O)c3c([nH]c2c1)CCC(C)(C)C3
[1]
  solubility: 75 µM (≈ 18.1 µg/mL)
[2]
  pEC50: 6.78
[3]
  selectivity ratio: ≥ 100
[4]
  pEC50: 5.70
[5]
  Papp: 82 ×10⁻⁶ cm/s
[6]
  logD: 2.4
[7]
  pEC50: < 4.40
[8]
  Ratio EC50: 11.9

## Cc1ccc2[nH]c3c(c(=O)c2c1)CC(C)(C)CC3
[1]
  solubility: 52 µM (≈ 12.5 µg/mL)
[2]
  pEC50: 6.32
[3]
  selectivity ratio: ≥ 100
[4]
  pEC50: 5.66
[5]
  Papp: 84 ×10⁻⁶ cm/s
[6]
  logD: 2.4
[7]
  pEC50: < 4.40
[8]
  Ratio EC50: 4.6

## Cc1cccc2[nH]c3c(c(=O)c12)CC(C)(C)CC3
[1]
  solubility: 45 µM (≈ 10.9 µg/mL)
[2]
  pEC50: 5.52
[3]
  selectivity ratio: ≥ 100
[4]
  pEC50: 5.38
[5]
  Papp: 269 ×10⁻⁶ cm/s
[6]
  logD: 2.7
[7]
  pEC50: < 4.40
[8]
  Ratio EC50: 1.37

## CC1(C)CCc2[nH]c3c(Cl)cccc3c(=O)c2C1
[1]
  solubility: 62 µM (≈ 16.2 µg/mL)
[2]
  pEC50: 5.33
[3]
  selectivity ratio: ≥ 100
[4]
  pEC50: 5.33
[5]
  Papp: 427 ×10⁻⁶ cm/s
[6]
  logD: 2.9
[7]
  pEC50: < 4.70
[8]
  Ratio EC50: 1.01

## CC1(C)CCc2[nH]c3cc(Cl)ccc3c(=O)c2C1
[1]
  solubility: 1 µM (≈ 0.262 µg/mL)
[2]
  pEC50: 6.62
[3]
  selectivity ratio: ≥ 100
[4]
  pEC50: 6.08
[5]
  Papp: 62 ×10⁻⁶ cm/s
[6]
  logD: 2.8
[7]
  pEC50: < 4.40
[8]
  Ratio EC50: 3.45

## CC1(C)CCc2[nH]c3ccc(Cl)cc3c(=O)c2C1
[1]
  solubility: 1 µM (≈ 0.262 µg/mL)
[2]
  pEC50: 6.59
[3]
  selectivity ratio: ≥ 100
[4]
  pEC50: 6.93
[5]
  Papp: 63 ×10⁻⁶ cm/s
[6]
  logD: 2.6
[7]
  pEC50: < 4.40
[8]
  Ratio EC50: 0.46

## O=c1c2c([nH]c3c(Cl)cccc13)CCCC2
[1]
  solubility: 107 µM (≈ 25 µg/mL)
[2]
  pEC50: 5.87
[3]
  selectivity ratio: ≥ 100
[4]
  pEC50: < 5.05
[5]
  Papp: 107 ×10⁻⁶ cm/s
[6]
  logD: 2.2
[7]
  pEC50: < 4.70
[8]
  Ratio EC50: >7.9

## O=c1c2c([nH]c3cc(Cl)ccc13)CCCC2
[1]
  solubility: 15 µM (≈ 3.51 µg/mL)
[2]
  pEC50: 6.86
[3]
  selectivity ratio: ≥ 100
[4]
  pEC50: 6.91
[5]
  Papp: 75 ×10⁻⁶ cm/s
[6]
  logD: 2.2
[7]
  pEC50: < 5.00
[8]
  Ratio EC50: 0.89
